From ChEMBL document CHEMBL5236590, “Discovery of Novel N-(5-(Pyridin-3-yl)-1H-indazol-3-yl)benzamide Derivatives as Potent Cyclin-Dependent Kinase 7 Inhibitors for the Treatment of Autosomal Dominant Polycystic Kidney Disease” (J Med Chem, 2022)
Activity calls are given as the source filed them. The calls are words filed in the database; no cut-off is given here.

What was measured:
[1] = Observed AUC (infinitive) in ICR mouse at 5 mg/kg, sc single dose measured upto 24 hrs; assay type: ADME, organism-based; design: time < 24 hrs, dose 5 mg/kg, route sc; settings: in vivo
[2] = test system: Mus musculus; experiment: Reduction in cyst formation in kidney-specific Pkd1 knockout ADPKD mouse model assessed as renal cystic index at 5 mg/kg by HE staining analysis; assay type: functional, organism-based
[3] = test system: THP-1; experiment: Cytotoxicity against human THP-1 cells assessed as cell viability measured after 24 hrs by CCK-8 assay; assay type: functional, cell-based; settings: THP-1, 24 h
[4] = biological target: Calcium/calmodulin-dependent protein kinase type 1 (Homo sapiens) (UniProt Q14012); experiment: Inhibition of human partial length wild type CaMKI expressed in bacterial system at 1 uM by KINOMEscan analysis relative to control
Calcium/calmodulin-dependent protein kinase type 1 (Homo sapiens), sequence (Q14012 whole entry, looked up, canonical isoform): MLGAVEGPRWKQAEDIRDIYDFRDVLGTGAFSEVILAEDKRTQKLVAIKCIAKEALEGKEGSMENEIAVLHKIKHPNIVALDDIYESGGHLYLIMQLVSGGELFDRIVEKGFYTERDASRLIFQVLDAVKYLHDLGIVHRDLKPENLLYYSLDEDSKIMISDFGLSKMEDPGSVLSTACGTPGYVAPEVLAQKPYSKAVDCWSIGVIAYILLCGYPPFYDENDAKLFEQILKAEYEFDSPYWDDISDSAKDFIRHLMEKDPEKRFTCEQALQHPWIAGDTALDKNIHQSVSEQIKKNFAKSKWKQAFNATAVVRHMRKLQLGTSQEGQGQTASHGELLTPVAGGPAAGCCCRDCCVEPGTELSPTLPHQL

[5] = biological target: Casein kinase I isoform gamma-1 (Homo sapiens) (UniProt Q9HCP0); experiment: Inhibition of human partial length wild type CKlgamma1 (T15/S353) expressed in bacterial system at 1 uM by KINOMEscan analysis relative to control
[6] = test system: Mus musculus; experiment: Reduction in AMPD3 protein expression in kidney-specific Pkd1 knockout ADPKD mouse model assessed as protein expression in kidney at 5 mg/kg by Western blot analysis; assay type: functional, organism-based
[7] = organism: Homo sapiens; experiment: Inhibition of human partial length wild type PRAK (M1/R415) expressed in mammalian system at 1 uM by KINOMEscan analysis relative to control
[8] = Half life in ICR mouse at 5 mg/kg, iv single dose measured upto 24 hrs; assay type: ADME, organism-based; settings: in vivo
[9] = biological target: Vascular endothelial growth factor receptor 2 (Homo sapiens) (UniProt P35968); experiment: Inhibition of human partial length wild type KDR (R787/P1253) expressed in mammalian system at 1 uM by KINOMEscan analysis relative to control
[10] = Observed MRT (infinitive) in ICR mouse at 5 mg/kg, iv single dose measured upto 24 hrs; assay type: ADME, organism-based; settings: in vivo
[11] = AUClast in ICR mouse at 5 mg/kg, sc single dose measured upto 24 hrs; assay type: ADME, organism-based; design: time < 24 hrs, dose 5 mg/kg, route sc; settings: in vivo
[12] = biological target: Ephrin type-A receptor 5 (Homo sapiens) (UniProt P54756); experiment: Inhibition of human partial length wild type EphA5 (T627/V930) expressed in bacterial system at 1 uM by KINOMEscan analysis relative to control
Ephrin type-A receptor 5 (Homo sapiens), sequence (P54756 whole entry): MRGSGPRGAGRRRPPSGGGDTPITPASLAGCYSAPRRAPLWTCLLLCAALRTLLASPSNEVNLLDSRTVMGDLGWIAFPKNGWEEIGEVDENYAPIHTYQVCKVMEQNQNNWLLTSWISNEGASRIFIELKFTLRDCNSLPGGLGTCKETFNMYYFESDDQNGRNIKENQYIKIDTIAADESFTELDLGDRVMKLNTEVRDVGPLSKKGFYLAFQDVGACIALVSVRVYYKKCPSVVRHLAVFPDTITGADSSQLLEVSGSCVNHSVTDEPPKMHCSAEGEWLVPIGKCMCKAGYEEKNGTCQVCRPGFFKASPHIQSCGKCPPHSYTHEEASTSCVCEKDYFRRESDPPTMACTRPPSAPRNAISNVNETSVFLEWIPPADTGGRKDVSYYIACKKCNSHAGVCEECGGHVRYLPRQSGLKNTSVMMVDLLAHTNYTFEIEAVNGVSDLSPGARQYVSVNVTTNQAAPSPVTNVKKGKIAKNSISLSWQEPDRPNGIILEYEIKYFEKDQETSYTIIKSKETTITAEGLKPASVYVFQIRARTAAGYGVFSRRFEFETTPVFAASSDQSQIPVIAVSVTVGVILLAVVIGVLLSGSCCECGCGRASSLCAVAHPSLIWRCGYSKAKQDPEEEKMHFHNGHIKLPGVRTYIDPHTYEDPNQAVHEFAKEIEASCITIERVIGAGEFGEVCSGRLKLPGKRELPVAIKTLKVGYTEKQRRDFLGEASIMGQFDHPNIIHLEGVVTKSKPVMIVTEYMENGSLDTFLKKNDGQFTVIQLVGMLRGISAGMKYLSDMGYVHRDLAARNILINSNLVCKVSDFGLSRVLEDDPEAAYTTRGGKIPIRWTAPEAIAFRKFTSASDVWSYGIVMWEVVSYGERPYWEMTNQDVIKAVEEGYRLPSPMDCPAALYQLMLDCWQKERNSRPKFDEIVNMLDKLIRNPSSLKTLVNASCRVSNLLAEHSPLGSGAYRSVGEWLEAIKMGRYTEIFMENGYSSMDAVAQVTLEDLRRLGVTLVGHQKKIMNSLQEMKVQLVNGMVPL

[13] = organism: Homo sapiens; experiment: Inhibition of PIK3 (unknown origin) at 1 uM relative to control
[14] = biological target: Eukaryotic elongation factor 2 kinase (Homo sapiens) (UniProt O00418); experiment: Inhibition of human recombinant eEF-2K at 1 uM by radiometric assay relative to control
[15] = Cmax in ICR mouse at 5 mg/kg, sc single dose measured upto 24 hrs; assay type: ADME, organism-based; design: time < 24 hrs, dose 5 mg/kg, route sc; settings: in vivo
[16] = biological target: Cyclin-dependent kinase 7 (Homo sapiens, UniProt P50613); experiment: Irreversible inhibition of CDK7 (unknown origin) assessed as activity measured after 3 hrs by jump dilution method
[17] = biological target: Insulin-like growth factor 1 receptor (Homo sapiens) (UniProt P08069); experiment: Inhibition of human partial length wild type IGF-1R (L972/D1294) expressed in bacterial system at 1 uM by KINOMEscan analysis relative to control
[18] = biological target: cAMP-dependent protein kinase catalytic subunit alpha (Homo sapiens) (UniProt P17612); experiment: Inhibition of human recombinant PKA expressed in Escherichia coli at 1 uM by KINOMEscan analysis relative to control
[19] = biological target: Tyrosine-protein kinase ABL1 (Homo sapiens) (UniProt P00519); experiment: Inhibition of human partial length Ab1 (S229/K512) expressed in mammalian system at 1 uM by KINOMEscan analysis relative to control
Tyrosine-protein kinase ABL1 (Homo sapiens), sequence (P00519 whole entry): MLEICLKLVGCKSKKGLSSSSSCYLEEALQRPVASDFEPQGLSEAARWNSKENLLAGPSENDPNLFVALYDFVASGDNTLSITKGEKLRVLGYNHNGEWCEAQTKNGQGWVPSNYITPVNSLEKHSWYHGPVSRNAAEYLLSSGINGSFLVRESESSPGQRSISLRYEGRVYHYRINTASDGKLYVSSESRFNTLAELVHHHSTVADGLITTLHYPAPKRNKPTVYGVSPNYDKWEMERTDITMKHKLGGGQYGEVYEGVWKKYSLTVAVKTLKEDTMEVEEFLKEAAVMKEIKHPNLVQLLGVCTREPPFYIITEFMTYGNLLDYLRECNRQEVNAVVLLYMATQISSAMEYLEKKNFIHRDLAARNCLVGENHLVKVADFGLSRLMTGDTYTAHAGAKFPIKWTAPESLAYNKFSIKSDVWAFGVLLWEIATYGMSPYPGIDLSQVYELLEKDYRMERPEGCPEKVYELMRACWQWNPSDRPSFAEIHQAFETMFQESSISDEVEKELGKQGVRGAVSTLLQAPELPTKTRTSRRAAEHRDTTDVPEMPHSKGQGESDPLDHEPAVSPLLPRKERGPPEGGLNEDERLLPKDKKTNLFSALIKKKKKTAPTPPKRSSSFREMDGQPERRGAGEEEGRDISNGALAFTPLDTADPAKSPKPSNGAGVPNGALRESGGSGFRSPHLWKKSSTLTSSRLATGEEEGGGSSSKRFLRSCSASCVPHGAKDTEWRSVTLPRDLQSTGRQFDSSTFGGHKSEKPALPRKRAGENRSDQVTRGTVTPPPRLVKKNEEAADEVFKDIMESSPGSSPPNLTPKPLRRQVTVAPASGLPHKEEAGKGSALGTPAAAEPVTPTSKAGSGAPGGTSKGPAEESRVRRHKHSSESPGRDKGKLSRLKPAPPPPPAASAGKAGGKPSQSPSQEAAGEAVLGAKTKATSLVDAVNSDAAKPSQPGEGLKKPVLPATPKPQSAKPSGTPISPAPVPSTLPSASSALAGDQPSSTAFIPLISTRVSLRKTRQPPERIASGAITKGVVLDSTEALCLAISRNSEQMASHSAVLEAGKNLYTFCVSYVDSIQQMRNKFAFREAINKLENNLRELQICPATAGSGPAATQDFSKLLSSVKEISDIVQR

[20] = test system: Mus musculus; experiment: Reduction in AMPD3 protein expression in kidney-specific Pkd1 knockout ADPKD mouse model assessed as protein expression in cyst-lining epithelial cell at 5 mg/kg by Western blot analysis; assay type: functional, organism-based
[21] = organism: Homo sapiens; experiment: Inhibition of P13 Kinase p120gamma (unknown origin) at 1 uM relative to control
[22] = Toxicity in wild type mouse assessed as kidney size at 5 mg/kg; assay type: organism-based; settings: in vivo
[23] = biological target: Inhibitor of nuclear factor kappa-B kinase subunit alpha (Homo sapiens) (UniProt O15111); experiment: Inhibition of human full length wild type IKKalpha expressed in mammalian system at 1 uM by KINOMEscan analysis relative to control
[24] = biological target: RAC-alpha serine/threonine-protein kinase (Homo sapiens) (UniProt P31749); experiment: Inhibition of PKBalpha (unknown origin) at 1 uM relative to control
RAC-alpha serine/threonine-protein kinase (Homo sapiens), sequence (P31749 whole entry): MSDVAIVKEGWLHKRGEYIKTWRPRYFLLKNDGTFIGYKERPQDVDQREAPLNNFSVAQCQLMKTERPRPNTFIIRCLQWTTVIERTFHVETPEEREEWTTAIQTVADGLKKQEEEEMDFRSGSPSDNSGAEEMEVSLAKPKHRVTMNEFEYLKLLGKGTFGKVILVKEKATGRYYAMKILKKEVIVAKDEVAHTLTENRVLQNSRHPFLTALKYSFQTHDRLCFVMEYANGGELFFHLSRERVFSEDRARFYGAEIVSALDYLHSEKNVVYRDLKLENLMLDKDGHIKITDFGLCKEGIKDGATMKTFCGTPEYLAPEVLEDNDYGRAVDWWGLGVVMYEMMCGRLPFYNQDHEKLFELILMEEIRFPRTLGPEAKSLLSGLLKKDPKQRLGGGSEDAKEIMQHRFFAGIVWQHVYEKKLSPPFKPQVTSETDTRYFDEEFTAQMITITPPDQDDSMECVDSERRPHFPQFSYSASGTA

[25] = biological target: Serine/threonine-protein kinase pim-1 (Homo sapiens) (UniProt P11309); experiment: Inhibition of human partial length wild type Pim-1 (M1/E291) expressed in bacterial system at 1 uM by KINOMEscan analysis relative to control
[26] = biological target: Serine/threonine-protein kinase PAK 2 (Homo sapiens) (UniProt Q13177); experiment: Inhibition of human partial length wild type PAK2 (P151/R525) expressed in bacterial system at 1 uM by KINOMEscan analysis relative to control
[27] = biological target: Cyclin-dependent kinase 5 (Homo sapiens, UniProt Q00535); experiment: Inhibition of CDK5 (unknown origin)
[28] = test system: Mus musculus; experiment: Reduction in kidney size in kidney-specific Pkd1 knockout ADPKD mouse model assessed as renal cystic index at 5 mg/kg by HE staining analysis (reference value: 23 +/- 1.3%); assay type: functional, organism-based
[29] = biological target: Tyrosine-protein kinase Lyn (Homo sapiens) (UniProt P07948); experiment: Inhibition of human partial length wild type Lyn (C219/Q511) expressed in bacterial system at 1 uM by KINOMEscan analysis relative to control
[30] = biological target: Cyclin-dependent kinase 3 (Homo sapiens, UniProt Q00526); experiment: Inhibition of CDK3 (unknown origin)
Cyclin-dependent kinase 3, sequence (Q00526 whole entry): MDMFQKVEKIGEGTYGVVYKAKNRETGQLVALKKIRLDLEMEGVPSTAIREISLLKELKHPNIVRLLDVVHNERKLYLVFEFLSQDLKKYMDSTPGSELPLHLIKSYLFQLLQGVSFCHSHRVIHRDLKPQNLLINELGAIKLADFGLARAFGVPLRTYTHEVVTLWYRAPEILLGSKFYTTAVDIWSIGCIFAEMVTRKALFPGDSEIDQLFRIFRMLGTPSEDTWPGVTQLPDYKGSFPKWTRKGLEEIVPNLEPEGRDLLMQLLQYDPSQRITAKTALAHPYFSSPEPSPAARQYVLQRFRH

[31] = test system: Epidermal growth factor receptor (Homo sapiens), P00533 [UNDEFINED MUTATION]; experiment: Inhibition of human partial length EGFR (R669/V1011) G719C mutant expressed in bacterial system at 1 uM by KINOMEscan analysis relative to control
Epidermal growth factor receptor (Homo sapiens), P00533 [UNDEFINED MUTATION], sequence (P00533 whole entry, looked up, stated change not applied): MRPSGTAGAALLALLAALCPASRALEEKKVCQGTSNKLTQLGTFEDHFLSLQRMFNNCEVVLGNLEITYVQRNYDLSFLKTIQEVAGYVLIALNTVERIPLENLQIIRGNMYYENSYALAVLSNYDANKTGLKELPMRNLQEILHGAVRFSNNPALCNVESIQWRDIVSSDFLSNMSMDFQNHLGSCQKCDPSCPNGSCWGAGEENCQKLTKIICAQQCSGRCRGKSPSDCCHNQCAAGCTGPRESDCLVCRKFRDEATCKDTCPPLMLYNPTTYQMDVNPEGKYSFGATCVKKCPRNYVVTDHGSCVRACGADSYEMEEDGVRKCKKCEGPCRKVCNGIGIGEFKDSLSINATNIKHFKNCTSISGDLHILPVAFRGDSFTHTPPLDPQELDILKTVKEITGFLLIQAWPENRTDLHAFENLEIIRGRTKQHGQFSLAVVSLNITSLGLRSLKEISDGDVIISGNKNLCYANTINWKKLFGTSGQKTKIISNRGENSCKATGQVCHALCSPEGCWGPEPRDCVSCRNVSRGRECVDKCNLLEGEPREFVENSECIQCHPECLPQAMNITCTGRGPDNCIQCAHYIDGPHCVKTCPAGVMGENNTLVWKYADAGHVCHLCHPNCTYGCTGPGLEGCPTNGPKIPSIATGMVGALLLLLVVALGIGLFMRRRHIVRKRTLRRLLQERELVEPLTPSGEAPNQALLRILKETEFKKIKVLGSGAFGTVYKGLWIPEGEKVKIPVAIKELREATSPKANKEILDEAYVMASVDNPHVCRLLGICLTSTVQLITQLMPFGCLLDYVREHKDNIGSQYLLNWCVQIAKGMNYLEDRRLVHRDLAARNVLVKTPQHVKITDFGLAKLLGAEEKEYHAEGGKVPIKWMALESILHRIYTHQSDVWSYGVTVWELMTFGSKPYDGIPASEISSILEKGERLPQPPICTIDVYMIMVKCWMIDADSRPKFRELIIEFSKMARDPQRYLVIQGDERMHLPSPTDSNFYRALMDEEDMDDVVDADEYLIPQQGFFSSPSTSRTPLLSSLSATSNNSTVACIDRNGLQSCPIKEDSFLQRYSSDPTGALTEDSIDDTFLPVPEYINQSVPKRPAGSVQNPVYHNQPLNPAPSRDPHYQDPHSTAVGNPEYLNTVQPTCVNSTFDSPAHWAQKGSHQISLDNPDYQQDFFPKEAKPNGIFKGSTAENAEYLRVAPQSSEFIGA

[32] = biological target: Serine/threonine-protein kinase Chk1 (Homo sapiens) (UniProt O14757); experiment: Inhibition of human partial length wild type CHK1 expressed in bacterial system at 1 uM by KINOMEscan analysis relative to control
[33] = biological target: Cyclin-dependent kinase 6 (Homo sapiens, UniProt Q00534); experiment: Inhibition of CDK6 (unknown origin)
Cyclin-dependent kinase 6, sequence (Q00534 whole entry): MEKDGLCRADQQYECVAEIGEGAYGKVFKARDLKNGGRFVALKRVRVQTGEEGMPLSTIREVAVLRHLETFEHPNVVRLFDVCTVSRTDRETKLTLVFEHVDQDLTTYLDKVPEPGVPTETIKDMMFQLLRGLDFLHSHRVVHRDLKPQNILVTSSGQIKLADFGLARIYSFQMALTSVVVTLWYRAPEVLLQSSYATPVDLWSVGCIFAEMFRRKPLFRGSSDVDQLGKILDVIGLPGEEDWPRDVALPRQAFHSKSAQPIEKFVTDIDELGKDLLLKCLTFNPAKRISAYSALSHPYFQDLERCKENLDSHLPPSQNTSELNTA

[34] = biological target: Cyclin-dependent kinase 12 (Homo sapiens, UniProt Q9NYV4); experiment: Inhibition of CDK12 (unknown origin)
[35] = biological target: Serine/threonine-protein kinase 10 (Homo sapiens) (UniProt O94804); experiment: Inhibition of human partial length wild type LOK (E16/V314) expressed in bacterial system at 1 uM by KINOMEscan analysis relative to control
[36] = Apparent permeability across basolateral to apical side in human Caco-2 cells measured after 120 mins by LC-MS/MS analysis; assay type: ADME, cell-based
[37] = biological target: Interleukin-1 receptor-associated kinase 4 (Homo sapiens) (UniProt Q9NWZ3); experiment: Inhibition of human partial length wild type IRAK4 expressed in mammalian system at 1 uM by KINOMEscan analysis relative to control

**Q.** For `C=CC(=O)Nc1ccc(C(=O)Nc2n[nH]c3ccc(-c4cncc(NC[C@@H](O)c5ccccc5)c4)cc23)cc1`, which AUC(0-inf) [1] is on record?
**A.** 17400 ng·h/mL

**Q.** And the Activity [2]?
**A.** Active

**Q.** And the IC50 [3]?
**A.** 13 µM

**Q.** And the inhibition [4]?
**A.** < 50%

**Q.** What about the inhibition [5] of the same compound?
**A.** < 50%

**Q.** What about the inhibition [6] of the same compound?
**A.** Active

**Q.** What about the inhibition [7] of the same compound?
**A.** < 50%

**Q.** What about the half-life [8] of the same compound?
**A.** 18 h

**Q.** What about the inhibition [9] of the same compound?
**A.** 63%

**Q.** And the MRT inf [10]?
**A.** 10 h

**Q.** What about the AUC(0-t) at 24 h [11] of the same compound?
**A.** 17300 ng·h/mL

**Q.** And the inhibition [12]?
**A.** < 50%

**Q.** What about the inhibition [13] of the same compound?
**A.** < 50%

**Q.** What about the inhibition [14] of the same compound?
**A.** < 50%

**Q.** What about the Cmax [15] of the same compound?
**A.** 3810 ng/mL

**Q.** What about the inhibition [16] of the same compound?
**A.** Active

**Q.** What about the inhibition [17] of the same compound?
**A.** < 50%

**Q.** And the inhibition [18]?
**A.** < 50%

**Q.** What about the inhibition [19] of the same compound?
**A.** < 50%

**Q.** And the Activity [20]?
**A.** Active

**Q.** What about the inhibition [21] of the same compound?
**A.** < 50%

**Q.** What about the Activity [22] of the same compound?
**A.** Non-Toxic

**Q.** And the inhibition [23]?
**A.** < 50%

**Q.** What about the inhibition [24] of the same compound?
**A.** < 50%

**Q.** What about the inhibition [25] of the same compound?
**A.** 57%

**Q.** And the inhibition [26]?
**A.** < 50%

**Q.** What about the IC50 [27] of the same compound?
**A.** > 10 µM

**Q.** What about the Activity [28] of the same compound?
**A.** Active

**Q.** And the inhibition [29]?
**A.** < 50%

**Q.** What about the IC50 [30] of the same compound?
**A.** 1.84 µM

**Q.** And the inhibition [31]?
**A.** < 50%

**Q.** And the inhibition [32]?
**A.** < 50%

**Q.** What about the IC50 [33] of the same compound?
**A.** 0.95 µM

**Q.** What about the IC50 [34] of the same compound?
**A.** > 10 µM

**Q.** And the inhibition [35]?
**A.** < 50%

**Q.** What about the Papp B→A at 2 h [36] of the same compound?
**A.** 6 ×10⁻⁶ cm/s

**Q.** And the inhibition [37]?
**A.** < 50%
